Experimental data from patent publication US4036840A, “2-Substituted-s-triazolo[1,5a]pyrimidines” (ICN Pharmaceuticals, priority 1975, dated 1977).

What was measured:
[1] = test system: 3',5'-Cyclic AMP phosphodiesterase (PDE) from kidney; assay: 3',5'-Cyclic AMP phosphodiesterase (PDE) inhibition, rabbit kidney enzyme (Fraction II, low Km); format: biochemical; conditions: relative to theophylline, cAMP about 1.7 × 10^-7 M, 30° C., 10 minutes, pH 7.5
[2] = test system: 3',5'-Cyclic AMP phosphodiesterase (PDE) from lung; assay: 3',5'-Cyclic AMP phosphodiesterase (PDE) inhibition, rabbit lung enzyme (Fraction II, low Km); format: biochemical; conditions: relative to theophylline, cAMP about 1.7 × 10^-7 M, 30° C., 10 minutes, pH 7.5
[3] = test system: anesthetized dogs; assay: Hemodynamic activity in anesthetized dogs; format: in vivo, dog; conditions: 10 mg/Kg/hr; vehicle DMSO (Saline for 44-46)
Experimental: Compounds 3, 41, 43-48, 51 were tested in anesthetized dogs for hemodynamic activities including cardiac output, stroke volume and heart rate. For management of low perfusion states such as cardiovascular shock and congestive heart failure, it is desirable to have increased cardiac output and increased stroke volume accompanied by a decrease or no change in heart rate.
% CHANGE OF CARDIAC OUTPUT, STROKE VOLUME AND HEART RATE AT 10 mg/Kg/hr

[4] = test system: rats; assay: Hypotensive activity (Weeks and Jones), mean blood pressure in rats; format: in vivo, rat; conditions: oral
Experimental: Exper. Therap., 104, 646 (1960). At an oral dose of 50 mg/kg in rats, there was a % decrease in mean blood pressure at 1, 3, 6 hours of 11%, 13%, and 24%, respectively.

[5] = Solubility noted in the PDE test (Insoluble); format: physicochemical; conditions: compound not tested for PDE inhibition
Experimental: With respect to the compounds which are indicated in Tables I, II and III as being insoluble, although such compounds have not undergone the inhibitory test of Example XVI, due to the similarity in structure to compounds which were tested, it is expected that in vivo testing of the compounds in forms other than solution will readily indicate phosphodiesterase enzyme inhibitory capability.

[6] = test system: isolated guinea pig uteri; assay: Smooth muscle relaxation of isolated guinea pig uteri; conditions: 2-10 μg/ml
[7] = test system: isolated guinea pig heart preparation; assay: Coronary dilation in isolated guinea pig heart preparation; conditions: 10 μg/ml, preliminary

Structure (SMILES)	PDE Kidney; α (I50 theophylline / I50 compound) [1]	PDE Lung; α (I50 theophylline / I50 compound) [2]	also measured
Cc1cc(C)n2nc(SCC(C)C)nc2n1 [Compound 10]	0.50	0.10	–
Cc1cc(C)n2nc(SC(C)C)nc2n1 [Compound 8]	1.30	0.10	–
CSc1nc2nc(C)cc(C)n2n1 [Compound 9]	0.25	0.50	–
CCOC(=O)c1cnc2nc(SCc3ccccc3)nn2c1N1CCOCC1 [Compound 36]	2.90	6.90	–
Cc1cc(C)n2nc(SCc3ccncc3)nc2n1 [Compound 18]	0.70	0.80	–
CCCc1cc(CCC)n2nc(S(=O)(=O)Cc3ccccc3)nc2n1 [Compound 47, 2-benzylsulfonyl-5,7-di-n-propyl-1,2,4-triazolo[1,5a]pyrimidine]	–	–	% change of cardiac output [3]: +35.6%; % change of heart rate [3]: +0.2%; % change of stroke volume [3]: +34.7%
CCOC(=O)c1cnc2nc(SCc3ccccc3)nn2c1O [Compound 34, 2-benzylthio-6-carbethoxy-7-hydroxy-s-triazolo [1,5a]pyrimidine]	0.00	0.00	–
Cc1cc(C)n2nc(SCc3ccc4ccccc4n3)nc2n1 [Compound 20]	0.70	2.00	–
CCOC(=O)C(Sc1nc2nc(C)cc(C)n2n1)C(=O)OCC [Compound 11]	0.00	0.50	–
Cc1cc(Cl)n2nc(SCc3ccccc3)nc2n1 [Compound 25, 2-benzylthio-7-chloro-5-methyl-s-triazolo[1,5a]pyrimidine]	1.40	4.00	–
Cc1cc(N2CCCCC2)n2nc(SCc3ccccc3)nc2n1 [Compound 30]	3.20	10.0	–
CC(=O)Cc1cc(C)nc2nc(SCc3ccccc3)nn12 [Compound 51, 2-BENZYLTHIO-5-METHYL-7-(2-ACETONYL)-1,2,4-TRIAZOLO [1,5a]PYRIMIDINE]	–	–	% change of cardiac output [3]: +46.2%; % change of heart rate [3]: +3.3%; % change of stroke volume [3]: +42.0%
Cc1cccc(CSc2nc3nc(C)cc(C)n3n2)c1 [Compound 14]	0.70	2.00	–
Cc1cc(NN)n2nc(SCc3ccccc3)nc2n1 [Compound 32, 2-benzylthio-7-hydrazino-5-methyl-s-triazolo[1,5a]pyrimidine]	–	–	hypotensive activity ([4]; 25 mg/kg): significant hypotensive activity; hypotensive activity ([4]; 50 mg/kg): significant hypotensive activity; % decrease in mean blood pressure at 1 hour ([4]; 50 mg/kg, 1 hour): 11%; % decrease in mean blood pressure at 3 hours ([4]; 50 mg/kg, 3 hours): 13%; % decrease in mean blood pressure at 6 hours ([4]; 50 mg/kg, 6 hours): 24%; Solubility [5]: Insoluble
CCCc1cc(CCC)n2nc(S(=O)(=O)Cc3ccc(C)cc3)nc2n1 [Compound 48, 5,7-di-n-propyl-2-(4-methylbenzyl)sulfonyl-1,2,4-triazolo[1,5a]pyrimidine]	–	–	% change of cardiac output [3]: +16.4%; % change of heart rate [3]: -14.3%; % change of stroke volume [3]: +36.1%
CCCc1cc(CCC)n2nc(SCc3ccccc3)nc2n1 [Compound 41, 2-benzylthio-5,7-di-n-propyl-1,2,4-triazolo[1,5a]pyrimidine]	–	–	% change of cardiac output [3]: +23%; % change of heart rate [3]: -4.2%; % change of stroke volume [3]: +27%
Cc1cc(C)n2nc(SCC3CCCO3)nc2n1 (stereo not drawn) [Compound 22]	0.00	0.60	–
Cc1cc(N(C)C)n2nc(SCc3ccccc3)nc2n1 [Compound 28]	3.40	8.00	–
Cc1cc(C)n2nc(SCc3cc4c(cc3Cl)OCO4)nc2n1 [Compound 16]	–	–	Solubility [5]: Insoluble
Cc1cc(C)n2nc(SCCc3ccccc3)nc2n1 [Compound 23]	2.50	2.50	–
Cc1cc(C)n2nc(SCc3ccc(Cl)cc3)nc2n1 [Compound 4, 2-(p-chlorobenzylthio)-5,7-dimethyl-s-triazolo[1,5a]pyrimidine]	4.0	4.00	–

Structure (SMILES)	PDE Kidney; α (I50 theophylline / I50 compound) [1]	PDE Lung; α (I50 theophylline / I50 compound) [2]	also measured
CCOC(=O)c1ccc(CSc2nc3nc(C)cc(C)n3n2)o1 [Compound 21]	1.25	3.2	–
Cc1cc(C)n2nc(SCc3ccc(C(=O)O)cc3)nc2n1 [Compound 12]	0.70	1.20	–
CCCc1cc(CCC)n2nc(SCc3ccc(C(=O)O)cc3)nc2n1 [Compound 44, 5,7-di-n-propyl-2-(4-carboxybenzyl)thio-1,2,4-triazolo[1,5a]pyrimidine]	–	–	% change of cardiac output [3]: +18%; % change of heart rate [3]: +0.2%; % change of stroke volume [3]: +18%
Cc1cc(C)n2nc(SCc3ccccc3C)nc2n1 [Compound 15]	4.00	3.50	–
Cc1ccc(CSc2nc3nc(C)cc(C)n3n2)cc1 [Compound 13]	1.00	6.20	–
CCN(CC)c1cc(C)nc2nc(SCc3ccccc3)nn12 [Compound 27, 2-benzylthio-7-diethylamino-5-methyl-s-triazole[1,5a]pyrimidine]	2.30	4.20	smooth muscle relaxation [6]: smooth muscle relaxants; coronary dilation [7]: coronary dialation
CCCNc1c(C(=O)OCC)cnc2nc(SCc3ccccc3)nn12 [Compound 39, 2-benzylthio-6-carbethoxy-7-n-propylamino-s-triazolo[1,5a]pyrimidine]	7.0	21.0	coronary dilation [7]: coronary dialation
CCOC(=O)c1cnc2nc(SCc3ccccc3)nn2c1Cl [Compound 35, 2-benzylthio-6-carbethoxy-7-chloro-s-triazolo[1,5a]pyrimidine]	–	–	Solubility [5]: Insoluble
CCOC(=O)c1cnc2nc(SCc3ccccc3)nn2c1S [Compound 40, 2-BENZYLTHIO-6-CARBETHOXY-7-MERCAPTO-s-TRIAZOLO[1,5a] PYRIMIDINE]	–	–	Solubility [5]: Insoluble
CCCc1cc(CCC)n2nc(SCc3cccnc3)nc2n1 [Compound 46, 5,7-di-n-propyl-2-(3-picolyl)thio-1,2,4-triazolo[1,5a]pyrimidine]	–	–	% change of cardiac output [3]: +20%; % change of heart rate [3]: -10.9%; % change of stroke volume [3]: +35%
CCCNc1cc(C)nc2nc(SCc3ccccc3)nn12 [Compound 26]	0.90	2.00	–
CCOC(=O)c1cnc2nc(SCc3ccccc3)nn2c1NCCO [Compound 38]	–	–	Solubility [5]: Insoluble
CCCSc1nc2nc(C)cc(C)n2n1 [Compound 7]	1.00	0.90	–
CCOC(=O)c1cnc2nc(SCc3ccccc3)nn2c1NCc1ccccc1 [Compound 37]	–	–	Solubility [5]: Insoluble
Cc1cc(C)n2nc(SCc3c(C)ccc4ccccc34)nc2n1 [Compound 17]	–	–	Solubility [5]: Insoluble
Cc1cc(NN(C)C)n2nc(SCc3ccccc3)nc2n1 [Compound 33]	8.00	5.30	–
Cc1cc(C)n2nc(SCc3cccnc3)nc2n1 [Compound 19]	0.00	1.17	–
CCCc1cc(CCC)n2nc(SCc3ccc(C)cc3)nc2n1 [Compound 43, 5,7-di-n-propyl-2-(4-methylbenzyl)thio-1,2,4-triazolo[1,5a]pyrimidine]	–	–	% change of cardiac output [3]: +34.3%; % change of heart rate [3]: -2.8%; % change of stroke volume [3]: +3.8%
Cc1cc(C)n2nc(SCc3ccccc3)nc2n1 [Compound 3, 2-benzylthio-5,7-dimethyl-s-triazolo[1,5a]pyrimidine]	2.10	2.50	% change of cardiac output [3]: -1%; % change of heart rate [3]: -7%; % change of stroke volume [3]: -7%
Cc1cc(N2CCOCC2)n2nc(SCc3ccccc3)nc2n1 [Compound 31]	4.80	7.70	–
CCCc1cc(CCC)n2nc(SCc3ccncc3)nc2n1 [Compound 45, 5,7-di-n-propyl-2-(4-picolyl)thio-1,2,4-triazolo[1,5a]pyrimidine]	–	–	% change of cardiac output [3]: +27%; % change of heart rate [3]: -8.1%; % change of stroke volume [3]: +39%
